Measurements: patent publication US6358885B1, “Substituted phenylheterocyclic herbicides” (Mississippi State University, priority 1992, dated 2002)

How the values were obtained:
purple nutsedge = assay: Test B preemergence/postemergence greenhouse plant response rating 0 to 10; type: in vivo, Cyperus rotundus; details: 0 to 10 scale
Summary of the method: (§1)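 Test chemicals, dissolved in a non-phytotoxic solvent, were applied to soil at planting and, at the same time, over foliage of seedlings at the one to four leaf stage.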

barnyardgrass = assay: Test C flood test plant response rating 0 to 100; type: in vivo, Echinochloa crus-galli; details: for Plant response rating (0 to 100), Barnyardgrass: under POSTEMERGENCE head (flood test species); for Plant response rating, Barnyardgrass: flood test species listed under POSTEMERGENCE, 0 to 100 scale
Summary of the method: (§2)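 Compounds in non-phytotoxic solvent applied preemergence to sandy loam one day after planting, postemergence at the 1–4 leaf stage, or to ~2.5 cm floodwater over silt loam.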

sorghum = assay: Test C preemergence/postemergence greenhouse plant response rating 0 to 100; type: in vivo, Sorghum bicolor; details: POSTEMERGENCE; for Plant response rating, Sorghum: 0 to 100 scale
Summary of the method: as §2

soybean = assay: Test B preemergence/postemergence greenhouse plant response rating 0 to 10; type: in vivo, Glycine max; details: 0 to 10 scale
Summary of the method: as §1

crabgrass = assay: as above; type: in vivo, Digitaria spp.; details: 0 to 10 scale
Summary of the method: as §1

cocklebur = assay: as above; type: in vivo, Xanthium pensylvanicum; details: 0 to 10 scale
Summary of the method: as §1

blackgrass = assay: as above; type: in vivo, Alopecurus myosuroides; details: 0 to 10 scale
Summary of the method: as §1

rice [1] = assay: as above; type: in vivo, Oryza sativa; details: 0 to 10 scale
Summary of the method: as §1

bedstraw = assay: as above; type: in vivo, Galium aparine; details: 0 to 10 scale
Summary of the method: as §1

sugar beet = assay: as above; type: in vivo, Beta vulgaris; details: 0 to 10 scale
Summary of the method: as §1

pigweed = assay: Test C preemergence/postemergence greenhouse plant response rating 0 to 100; type: in vivo, Amaranthusretroflexus; details: POSTEMERGENCE; for Plant response rating Pigweed: 0 to 100 scale
Summary of the method: as §2

barley = assay: Test B preemergence/postemergence greenhouse plant response rating 0 to 10; type: in vivo, Hordeum vulgare; details: 0 to 10 scale
Summary of the method: as §1

morningglory = assay: Test C preemergence/postemergence greenhouse plant response rating 0 to 100; type: in vivo, Ipomoea hederacea; details: POSTEMERGENCE; for Plant response rating, Morningglory: 0 to 100 scale
Summary of the method: as §2

rice [2] = assay: Test C flood test plant response rating 0 to 100; type: in vivo, Oryza sativa; details: for Plant response rating (0 to 100), Rice Japonica: under POSTEMERGENCE head (flood test species); for Plant response rating Rice Japonica: flood test species listed under POSTEMERGENCE, 0 to 100 scale
Summary of the method: as §2

lambsquarters = assay: Test B preemergence/postemergence greenhouse plant response rating 0 to 10; type: in vivo, Chenopodium album; details: 0 to 10 scale
Summary of the method: as §1

corn = assay: Test C preemergence/postemergence greenhouse plant response rating 0 to 100; type: in vivo, Zea mays; details: POSTEMERGENCE; for Plant response rating, Corn: 0 to 100 scale
Summary of the method: as §2

rape = assay: Test B preemergence/postemergence greenhouse plant response rating 0 to 10; type: in vivo, Brassica napus; details: 0 to 10 scale
Summary of the method: as §1

umbrella sedge = assay: Test C flood test plant response rating 0 to 100; type: in vivo, Cyperus difformis; details: for Plant response rating (0 to 100), Umbrella sedge: under POSTEMERGENCE head (flood test species); for Plant response rating Umbrella sedge: flood test species listed under POSTEMERGENCE, 0 to 100 scale
Summary of the method: as §2

With `C=C(Cl)COc1cc(-c2nn3c(c2Cl)CCCC3)c(F)cc1Cl` [Compound 40] the “Plant response rating, Nutsedge” value (purple nutsedge; POSTEMERGENCE, Rate 50 g/ha) was 2, the “Plant response rating, Nutsedge” value (purple nutsedge; PREEMERGENCE, Rate 50 g/ha) was 0 and the “Plant response rating, Nutsedge” value (purple nutsedge; Rate 200 g/ha, POSTEMERGENCE) was 4. The “Plant response rating, Nutsedge” value (purple nutsedge; Rate 200 g/ha, PREEMERGENCE) was 0, the “Plant response rating (0 to 100), Barnyardgrass” value (barnyardgrass; Rate 16 g/ha) was 100 and the “Plant response rating (0 to 100), Barnyardgrass” value (barnyardgrass; Rate 31 g/ha) was 100. For the same molecule, the “Plant response rating, Barnyardgrass” value (barnyardgrass; 62 g/ha) was 100, the “Plant response rating, Barnyardgrass” value (barnyardgrass; 125 g/ha) was 100 and the “Plant response rating, Sorghum” value (sorghum; 62 g/ha) was 30. The “Plant response rating, Sorghum” value (sorghum; 125 g/ha) was 50, the “Plant response rating (0 to 100), Sorghum” value (sorghum; Rate 16 g/ha) was 20 and the “Plant response rating (0 to 100), Sorghum” value (sorghum; Rate 31 g/ha) was 20. The “Plant response rating, Soybean” value (soybean; POSTEMERGENCE, Rate 50 g/ha) was 5, the “Plant response rating, Soybean” value (soybean; PREEMERGENCE, Rate 50 g/ha) was 0 and the “Plant response rating, Soybean” value (soybean; Rate 200 g/ha, POSTEMERGENCE) was 8. For the same molecule, the “Plant response rating, Soybean” value (soybean; Rate 200 g/ha, PREEMERGENCE) was 2, the “Plant response rating, Crabgrass” value (crabgrass; POSTEMERGENCE, Rate 50 g/ha) was 4 and the “Plant response rating, Crabgrass” value (crabgrass; POSTEMERGENCE, Rate 200 g/ha) was 5. The “Plant response rating, Crabgrass” value (crabgrass; PREEMERGENCE, Rate 50 g/ha) was 0, the “Plant response rating, Crabgrass” value (crabgrass; Rate 200 g/ha, PREEMERGENCE) was 8 and the “Plant response rating, Cocklebur” value (cocklebur; POSTEMERGENCE, Rate 50 g/ha) was 5. For the same molecule, the “Plant response rating, Cocklebur” value (cocklebur; POSTEMERGENCE, Rate 200 g/ha) was 10, the “Plant response rating, Cocklebur” value (cocklebur; PREEMERGENCE, Rate 50 g/ha) was 5 and the “Plant response rating, Cocklebur” value (cocklebur; Rate 200 g/ha, PREEMERGENCE) was 8. The “Plant response rating, Blackgrass” value (blackgrass; POSTEMERGENCE, Rate 50 g/ha) was 2, the “Plant response rating, Blackgrass” value (blackgrass; POSTEMERGENCE, Rate 200 g/ha) was 3 and the “Plant response rating, Blackgrass” value (blackgrass; Rate 200 g/ha, PREEMERGENCE) was 2. The “Plant response rating, Rice” value (rice [1]; POSTEMERGENCE, Rate 50 g/ha) was 5, the “Plant response rating, Rice” value (rice [1]; PREEMERGENCE, Rate 50 g/ha) was 0 and the “Plant response rating, Rice” value (rice [1]; Rate 200 g/ha, POSTEMERGENCE) was 5. The “Plant response rating, Rice” value (rice [1]; Rate 200 g/ha, PREEMERGENCE) was 0, the “Plant response rating, Bedstraw” value (bedstraw; POSTEMERGENCE, Rate 50 g/ha) was 10 and the “Plant response rating, Bedstraw” value (bedstraw; PREEMERGENCE, Rate 50 g/ha) was 9. For the same molecule, the “Plant response rating, Bedstraw” value (bedstraw; Rate 200 g/ha, PREEMERGENCE) was 9, the “Plant response rating, Sugar beet” value (sugar beet; POSTEMERGENCE, Rate 50 g/ha) was 10 and the “Plant response rating, Sugar beet” value (sugar beet; PREEMERGENCE, Rate 50 g/ha) was 9. For the same molecule, the “Plant response rating, Sugar beet” value (sugar beet; Rate 200 g/ha, POSTEMERGENCE) was 10, the “Plant response rating, Sugar beet” value (sugar beet; Rate 200 g/ha, PREEMERGENCE) was 9 and the “Plant response rating Pigweed” value (pigweed; 62 g/ha) was 100. For the same molecule, the “Plant response rating Pigweed” value (pigweed; 125 g/ha) was 100, the “Plant response rating (0 to 100), Pigweed” value (pigweed; Rate 16 g/ha) was 90 and the “Plant response rating (0 to 100), Pigweed” value (pigweed; Rate 31 g/ha) was 95. The “Plant response rating, Barley” value (barley; POSTEMERGENCE, Rate 50 g/ha) was 4, the “Plant response rating, Barley” value (barley; POSTEMERGENCE, Rate 200 g/ha) was 5 and the “Plant response rating, Barley” value (barley; PREEMERGENCE, Rate 50 g/ha) was 0. For the same molecule, the “Plant response rating, Barley” value (barley; Rate 200 g/ha, PREEMERGENCE) was 1, the “Plant response rating, Morningglory” value (morningglory; 62 g/ha) was 50 and the “Plant response rating, Morningglory” value (morningglory; 125 g/ha) was 70. The “Plant response rating (0 to 100), Morningglory” value (morningglory; Rate 16 g/ha) was 50, the “Plant response rating (0 to 100), Morningglory” value (morningglory; Rate 31 g/ha) was 50 and the “Plant response rating (0 to 100), Rice Japonica” value (rice [2]; Rate 16 g/ha) was 35. The “Plant response rating (0 to 100), Rice Japonica” value (rice [2]; Rate 31 g/ha) was 35, the “Plant response rating Rice Japonica” value (rice [2]; 62 g/ha) was 40 and the “Plant response rating Rice Japonica” value (rice [2]; 125 g/ha) was 40. For the same molecule, the “Plant response rating, Lambsquarter” value (lambsquarters; POSTEMERGENCE, Rate 50 g/ha) was 9, the “Plant response rating, Lambsquarter” value (lambsquarters; PREEMERGENCE, Rate 50 g/ha) was 10 and the “Plant response rating, Lambsquarter” value (lambsquarters; Rate 200 g/ha, POSTEMERGENCE) was 10. The “Plant response rating, Lambsquarter” value (lambsquarters; Rate 200 g/ha, PREEMERGENCE) was 10, the “Plant response rating, Corn” value (corn; 62 g/ha) was 30 and the “Plant response rating, Corn” value (corn; 125 g/ha) was 30. For the same molecule, the “Plant response rating (0 to 100), Corn” value (corn; Rate 16 g/ha) was 30, the “Plant response rating (0 to 100), Corn” value (corn; Rate 31 g/ha) was 30 and the “Plant response rating, Rape” value (rape; POSTEMERGENCE, Rate 50 g/ha) was 4. The “Plant response rating, Rape” value (rape; PREEMERGENCE, Rate 50 g/ha) was 8, the “Plant response rating, Rape” value (rape; Rate 200 g/ha, POSTEMERGENCE) was 8 and the “Plant response rating, Rape” value (rape; Rate 200 g/ha, PREEMERGENCE) was 6. The “Plant response rating (0 to 100), Umbrella sedge” value (umbrella sedge; Rate 16 g/ha) was 0, the “Plant response rating (0 to 100), Umbrella sedge” value (umbrella sedge; Rate 31 g/ha) was 0 and the “Plant response rating Umbrella sedge” value (umbrella sedge; 62 g/ha) was 10. The “Plant response rating Umbrella sedge” value (umbrella sedge; 125 g/ha) was 70.
